Measured values published in article doi:10.1101/2023.10.24.563163v2, “Targeting cancer with small molecule pan-KRAS degraders” (biorxiv, 2024).
Read-outs that look alike come from different tables or passages of the source.

What was measured:
[1] = molecular target: T1, VCB:KRAS ternary complex partners (Homo sapiens, UniProt P01116+P40337, P01116:C118S/P01116:G12D); test: biochemical; set-up: SPR binary and ternary complex binding affinity and kinetics; details: SPR; for kon: read-out: SPR VCB+KRAS^G12D kon [1/(M s)]
T1 construct: VCB (Avi-tagged, biotinylated for SPR) plus KRAS 1-169 C118S GDP; E. coli, His6 tags removed; with Elongin-C; Elongin-B
T1 sequence (Q15370 1-104): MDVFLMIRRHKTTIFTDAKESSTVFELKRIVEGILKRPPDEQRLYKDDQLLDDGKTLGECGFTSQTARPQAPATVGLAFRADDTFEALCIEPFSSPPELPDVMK
T1 sequence (P01116 1-169 G12D/C118S): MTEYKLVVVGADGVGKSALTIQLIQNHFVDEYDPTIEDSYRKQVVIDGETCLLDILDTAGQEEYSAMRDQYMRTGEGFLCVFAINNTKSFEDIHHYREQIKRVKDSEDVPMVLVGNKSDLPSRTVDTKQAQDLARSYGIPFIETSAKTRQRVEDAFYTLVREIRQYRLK
T1 sequence (Q15369 17-112, further chain): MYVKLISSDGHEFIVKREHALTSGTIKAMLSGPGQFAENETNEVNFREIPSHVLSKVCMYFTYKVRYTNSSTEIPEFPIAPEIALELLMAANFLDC
T1 sequence (P40337 54-213): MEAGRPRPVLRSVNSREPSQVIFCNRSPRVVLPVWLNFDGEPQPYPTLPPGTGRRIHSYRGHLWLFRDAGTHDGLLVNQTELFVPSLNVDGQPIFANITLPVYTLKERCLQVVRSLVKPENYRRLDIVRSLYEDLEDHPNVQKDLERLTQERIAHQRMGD
Excerpt: With the objective of identifying molecules that potently degrade multiple KRAS mutants we next sought to employ structure-based design using the solved ternary co-crystal structure of compound 3 to improve ternary complex stability and intracellular VHL engagement. […] Analysis of the VCB:compound 3:KRAS^G12V co-crystal structure (Fig. 1H) highlighted an opportunity to enhance interactions within the ternary complex by improving π-stacking between the exit vector amide of the VHL ligand and Tyr112. We therefore switched the amide for an isoxazole, which has been previously reported to improve VCB affinity in this position in other contexts ([22]), yielding compound 4 (Fig. 2A). A ternary complex co-crystal structure of VCB:compound 4:KRAS^G12V (PDB 8QW7) confirmed a consistent overall binding mode to that observed for compound 3 (RMSD = 0.72 Å), with compound 4 able to engage in π-stacking interaction between the isoxazole and Tyr112 of VCB as designed (Fig. 2B). […] FP, SPR and cellular target engagement studies support a minor improvement in binary VHL engagement for compound 4, with moderate cooperativity retained (fig. S2A-C, table S1). […] We then investigated the impact of these structural changes on degradation kinetics in live HiBiT-tagged GP5d cells (fig. S3A-D). […] Aiming to measure ternary complex stability, we noted that the FP assay reached the limits of quantification due to ternary KD approaching that of the assay probe (fig. S8B).

SW620 = test: cells; set-up: Inhibition of cell proliferation, 5 days; details: Homo sapiens, SW-620, 120 h; read-out: IC50 Proliferation SW620
Excerpt: (§1) Next, we set out to test the ability of a single pan-KRAS degrading molecule, compound 4, to selectively suppress oncogenic signaling and proliferation in cancer cell lines driven by diverse KRAS mutants. To this end, we first confirmed degradation of KRAS by compound 4 in KRAS-dependent (GP2d, SW620 and NCI-H358 expressing KRAS^G12D, - G12V or -G12C, respectively) as well as in KRAS independent (A-375, HEK293) cell lines (Fig. 3A, fig. S4A). […] Both inhibition and degradation repressed the established markers of MAPK signaling pERK (fig. S4B-D) and DUSP6 (Fig. 3B, fig. S4E) in KRAS dependent cell lines. […] Neither degradation nor inhibition had appreciable antiproliferative effects in the KRAS independent cell lines A-375 and HEK293 (Fig. 3C, fig. S4F). […] Pan-KRAS degradation impacts MAPK signaling and cancer cell proliferation.

GP2d = test: cells; set-up: Inhibition of cell proliferation, 5 days; details: 120 h, read-out: IC50 Proliferation GP2d
Excerpt: as §1

KRAS wild type = molecular target: T2, KRAS wild type (Homo sapiens, UniProt P01116); set-up: KRAS degradation by capillary electrophoresis (Wes) immunodetection; details: 6 h, degrader
T2 construct: endogenous in A375 / HEK293
T2 sequence (P01116 whole entry): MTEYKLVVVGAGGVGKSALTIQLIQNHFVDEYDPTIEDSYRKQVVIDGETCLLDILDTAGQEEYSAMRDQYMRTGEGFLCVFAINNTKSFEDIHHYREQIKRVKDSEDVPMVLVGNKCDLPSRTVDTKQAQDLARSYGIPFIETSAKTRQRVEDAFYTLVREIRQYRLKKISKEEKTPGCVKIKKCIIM
Description: Protein Detection by Capillary Electrophoresis Cells (50 000) were seeded the day before treatment into 96-well clear-flat bottom plates and incubated overnight (37 °C, humidified tissue culture incubator, 5% CO2). Compounds were added from DMSO stock solution using a digital dispenser and cells are incubated at 37 °C as specified (24 hours for KRAS degradation, 6 hours for determination of pERK levels). At the end of the incubation, medium was removed, cells washed with ice cold PBS, PBS removed and 50 µL lysis buffer (Meso Scale Discovery #R60TX-2) supplemented with 1:100 protease inhibitor solution, 1:100 phosphatase inhibitor I, 1:100 phosphatase inhibitor II (Meso Scale Discovery #R70AA-1), 0.5 µL/mL Benzonase (Novagen #70664-3) and 10 mM dithiothreitol added to each well. Plates with lysis buffer were immediately transferred to -80 °C freezer for at least 2 hours and then thawed on ice. Lysates were transferred to a 96 well V-bottom plate and insoluble debris was pelleted by centrifugation for 20 min. at 4 000 rpm. 40 µL of the supernatant were transferred to a fresh Eppendorf PCR plate. Analysis of protein levels was conducted using the Wes System, ProteinSimple (https://www.bio-techne.com/) as specified by the manufacturer. Briefly, Wes Master Mix (12-230 kDa WES Separation Module, 8 × 25 capillary cartridges, ProteinSimple #SM-W004) and molecular weight markers were prepared as specified in the manufacturer’s recommendations. To detect primary antibodies, anti-rabbit (Protein Simple #DM-001) or anti-mouse (Protein Simple #DM-002) detection modules were used. 7.2 µL lysate + 1.8 µL master mix were combined and heated to 95 °C for 5 min.

KRAS^WT = molecular target: T3, KRAS^WT (Homo sapiens, UniProt P01116); set-up: KRAS degradation by capillary electrophoresis immunodetection; details: read-out: DC50 24 h HEK293
T3 construct: endogenous wild type
T3 sequence (P01116 whole entry): as above
Description: Protein Detection by Capillary Electrophoresis Cells (50 000) were seeded the day before treatment into 96-well clear-flat bottom plates and incubated overnight (37 °C, humidified tissue culture incubator, 5% CO2). Compounds were added from DMSO stock solution using a digital dispenser and cells are incubated at 37 °C as specified (24 hours for KRAS degradation, 6 hours for determination of pERK levels). At the end of the incubation, medium was removed, cells washed with ice cold PBS, PBS removed and 50 µL lysis buffer (Meso Scale Discovery #R60TX-2) supplemented with 1:100 protease inhibitor solution, 1:100 phosphatase inhibitor I, 1:100 phosphatase inhibitor II (Meso Scale Discovery #R70AA-1), 0.5 µL/mL Benzonase (Novagen #70664-3) and 10 mM dithiothreitol added to each well. Plates with lysis buffer were immediately transferred to -80 °C freezer for at least 2 hours and then thawed on ice. Lysates were transferred to a 96 well V-bottom plate and insoluble debris was pelleted by centrifugation for 20 min. at 4 000 rpm. 40 µL of the supernatant were transferred to a fresh Eppendorf PCR plate. Analysis of protein levels was conducted using the Wes System, ProteinSimple (https://www.bio-techne.com/) as specified by the manufacturer. […]

| Compound | kon [1] [M⁻¹ s⁻¹] | IC50 (SW620) [nM] | IC50 (GP2d) [nM] | DC50 (KRAS wild type; A375) [nM] | DC50 (KRAS wild type; HEK293) [nM] | DC50 (KRAS^WT) [nM] | Kd [1] [nM] |
| --- | --- | --- | --- | --- | --- | --- | --- |
| Cc1ncsc1-c1ccc(CNC(=O)[C@@H]2C[C@@H](O)CN2C(=O)[C@@H](NC(=O)COCCCN2CCCN(c3nccc(-c4noc([C@@]5(C)CCCc6sc(N)c(C#N)c65)n4)n3)[C@@H](C)C2)C(C)(C)C)cc1 [compound 2] | 224000 | – | – | – | – | – | – |
| Cc1ncsc1-c1ccc(CNC(=O)C2CC(O)CN2C(=O)C(c2cc(OCCCCN3CCCN(c4nccc(-c5noc(C6(C)CCCc7sc(N)c(C#N)c76)n5)n4)C(C)C3)no2)C(C)C)cc1 (stereo not drawn) [compound 5] | – | 993 | 1740 | – | – | – | – |
| Cc1ncsc1-c1ccc(CNC(=O)[C@@H]2C[C@@H](O)CN2C(=O)[C@@H](NC(=O)CCCCCN2CCCN(c3nccc(-c4noc([C@@]5(C)CCCc6sc(N)c(C#N)c65)n4)n3)[C@@H](C)C2)C(C)(C)C)cc1 [compound 3] | 242000 | 232 | 374 | 751 | > 1000 | > 1000 | 30 ± 6 |
| Cc1ncsc1-c1ccc(CNC(=O)[C@@H]2C[C@@H](O)CN2C(=O)[C@@H](c2cc(OCCCCN3CCCN(c4nccc(-c5noc([C@@]6(C)CCCc7sc(N)c(C#N)c76)n5)n4)[C@@H](C)C3)no2)C(C)C)cc1 [compound 4] | – | 11 | 8.3 | 36.7 | 12.8 | 86.7 | – |
